The source of these data is patent US5688805A, “Tricyclic derivatives, compositions and methods of use” (Schering Corporation, priority 1995, dated 1997).

The test system of one experiment is TNF-α. Nature of the experiment: In Vitro Study: Inhibition of LPS-Induced TNF-α Production From the Murine Cell Line WEHI-265. As to conditions: for inhibition at 10 µM: Mus musculus, WEHI-265 cells, LPS, 20-24 hours. It is filed as cell-based. The procedure: This test procedure is a standard test used to determine anti-TNF-α activity and to evaluate the usefulness of said compounds for counteracting the biological effects of TNF-α.
In Vitro Study: Inhibition of LPS-Induced TNF-α Production From the Murine Cell Line WEHI-265
1) Cells (obtained from cell cultures containing ≤10^6 cells/ml) are suspended at 0.2×10^6 cells/ml in complete medium (RPMI1640, with 10% FCS, 10^-5 M 2-ME, 2 mM glutamine and 10 mM HEPES buffer) and plated in CoStar 24 well plates (1.0 ml/well).
2) Compounds are dissolved in the appropriate vehicle at 400 times the concentration to be tested, and 5 μl of compound is added to the wells.
3) LPS (from E. coli 0111:B4) is diluted to 6 μg/ml and 1.0 ml is added to wells.
4) Plates are incubated 20-24 hours in 37° C. CO2 incubator.
5) Supernatant fluids are collected and analyzed for TNF content as described in J. lmmunol., 142:3884.

Another experiment has as its system TNF. Nature of the experiment: In Vivo Study: Inhibition of LPS-Induced Serum TNF. The arrangement: species or system Mice (C57BI/6J males). The settings on record: Mus musculus, 1.5 h; 25 mg/kg orally or i.p. one hour before LPS (50 μg i.p.); bled 90 min after LPS; serum TNF by ELISA. As to the method:
In addition to the in vitro test described above, the following in vivo test was also performed on several of the compounds of the present invention.
2. In Vivo Study: Inhibition of LPS-Induced Serum TNF
1) Mice (C57BI/6J males, 6-8 weeks of age) are dosed with the indicated compound (dissolved in CMC suspension vehicle; compounds are given orally or i.p. one hour before LPS challenge).
3) Mice are bled 90 min after LPS challenge.
4) Sera are analyzed for TNF content by ELISA as described in J. Immunol.

Experiment [1] concerns LPS/Galactosamine-Induced Lethality. Kind of experiment: In Vivo Study: Inhibition of LPS/Galactosamine-Induced Lethality. As to conditions: 25 mg/kg orally or i.p. one hour before LPS (100 ng) and d-galactosamine (8 mg) i.p.; survival at 24 hours. Also on record: species or system Mice (C57BI/6J males). The procedure: This test procedure is a standard test used to determine activity against septic shock.
3. In Vivo Study: Inhibition of LPS/Galactosamine-Induced Lethality
Mice (C57BI/6J males, 6-8 weeks of age) are dosed with the indicated compound (dissolved in CMC suspension vehicle; compounds are given orally or i.p. one hour before challenge with LPS and d-galactosamine).
Mice are challenged i.p. with a mixture of LPS (from E. coli 0111:B4; 100 ng) and d-galactosamine (8 mg).
Survival is determined 24 hours after challenge. See procedure

In turn, `CN1CCCC(C2c3ccccc3CCc3ccccc32)C1` (stereo not drawn) [Compound IR, 3-(10,11-dihydro-5H-dibenzo[a,d]cyclohepten-5-yl)-1-methyl-piperidine] yielded an inhibition at 10 µM in the experiment on TNF-α of 60%.

Regarding `C=CCC1(C2=CCN(C)CC2)c2ccccc2CCc2ccc(Cl)cc21` (stereo not drawn) [IA], in the experiment on TNF-α, the inhibition at 10 µM is 80%.

Compound `C=CCC1(C2=CCN(C)CC2)c2ccccc2CCc2cccnc21` (stereo not drawn) [IX] yielded an inhibition in vivo at 25 mg/kg with TNF of 56%. Also, in experiment [1], the “# DEAD/TOTAL AT 25 MG/KG” value is 9/9. Further, the inhibition at 10 µM in the experiment with TNF-α worked out at 38%.

Consider `c1ccc2c(c1)CCc1ccccc1C2C1CCCNC1` (stereo not drawn) [Compound ID, 3-(10,11-dihydro-5H-dibenzo[a,d]cyclohepten-5-yl)-piperidine acetic acid], for which the inhibition at 10 µM with TNF-α worked out at 51%.

In the experiment on TNF-α, `C=CCC1(C2=CCN(C(C)=O)CC2)c2ccccc2CCc2ccccc21` [Compound IG, 1-acetyl-4-[10,11-dihydro-5-(2-propenyl)-5H-dibenzo[a,d]cyclohepten-5-yl]-1,2,5,6-tetrahydro-1H-pyridine] had an inhibition at 10 µM of 27%.

In turn, `CN1CC=C(C2c3ccccc3CCc3ccccc32)CC1` [Compound IL, 4-(10,11-dihydro-5H-dibenzo[a,d]cyclohepten-5-yl)-1-methyl-1,2,5,6-tetrahydropyridine] gave an inhibition in vivo at 25 mg/kg with TNF of 58%. The “# DEAD/TOTAL AT 25 MG/KG” value in experiment [1] is 1/9. The compound further displayed an inhibition at 10 µM in the experiment with TNF-α of 23%.

In the case of `CCCC1(C2CCN(C)CC2)c2ccccc2CCc2ccccc21` [Compound IJ, 4-[10,11-dihydro-5-propyl-5H-dibenzo[a,d]cyclohepten-5-yl]-1-methylpiperidine], in the experiment on TNF-α, at 10 µM the inhibition was 55%.

Regarding `C=CCC1(C2=CCN(C(=O)OCC)CC2)c2ccccc2CCc2ccccc21` [IC], the “# DEAD/TOTAL AT 25 MG/KG” value in experiment [1] is on record as 4/8. The inhibition at 10 µM in the experiment on TNF-α was found to be 20%.

In the experiment with TNF, `CN1CCC(C2c3ccccc3CCc3ccccc32)CC1` [Compound K, reference compound] had an inhibition in vivo at 25 mg/kg of 82%. Also, the “# DEAD/TOTAL AT 25 MG/KG” value in experiment [1] was 0/10. The inhibition at 10 µM in the experiment with TNF-α turned out to be 17%. For the same compound, the “anti-TNF-α activity (in words)” value in the experiment on TNF-α (general statement) is recorded as “has anti-TNF-α activity”.

On to `C=CCC1(C2=CCN(C)CC2)c2ccccc2C=Cc2ccccc21` [IH], for which, in the experiment on TNF, at 25 mg/kg the inhibition in vivo was 8%. Also, in experiment [1], the “# DEAD/TOTAL AT 25 MG/KG” value was 4/9. Moreover, in the experiment with TNF-α, at 10 µM the inhibition was 6%.

With `CN1CC=C(C2(Cc3ccccc3)c3ccccc3CCc3ccccc32)CC1` [IK], in the experiment on TNF, the inhibition in vivo at 25 mg/kg was 45%. In addition, the “# DEAD/TOTAL AT 25 MG/KG” value in experiment [1] was 5/9. Besides, at 10 µM the inhibition with TNF-α was 61%.

With `C=CCC1(C2=CCN(Cc3ccccc3)CC2)c2ccccc2CCc2ccccc21` [Compound IN, 4-[10,11-dihydro-5-(2-propenyl)-5H-dibenzo[a,d]cyclohepten-5-yl]-1-(phenylmethyl)-1,2,5,6-tetrahydro-1H-pyridine], in the experiment with TNF, the inhibition in vivo at 25 mg/kg turned out to be 42%. Moreover, in experiment [1], the “# DEAD/TOTAL AT 25 MG/KG” value was 10/10. Besides, 10 µM produced 25% inhibition with TNF-α.

In the experiment with TNF, `C=CCC1(C2=CCN(C)CC2)c2ccccc2CCc2ccccc21` [Compound IB, 4-[10,11-dihydro-5-(2-propenyl)-5H-dibenzo[a,d]cyclohepten-5-yl]-1-methyl-1,2,5,6-tetrahydropyridine] returned an inhibition in vivo at 25 mg/kg of 80%. Besides, in experiment [1], the “# DEAD/TOTAL AT 25 MG/KG” value is reported as 0/8. This compound also gave an inhibition at 10 µM in the experiment with TNF-α of 70%.

Regarding `C[N+]1(C)CC=C(C2c3ccccc3CCc3ccccc32)CC1` [Compound IY, 4-(10,11-dihydro-5H-dibenzo[a,d]cyclohepten-5-yl)-1,1-dimethyl-1,2,5,6-tetrahydropyridinium iodide], testing at 10 µM in the experiment with TNF-α gave an inhibition of 12%.

`CC1(C2=CC[N+](C)(C)CC2)c2ccccc2CCc2ccccc21` [IT]: the inhibition in vivo at 25 mg/kg in the experiment with TNF worked out at 3%. In the experiment on TNF-α, this compound came in with an inhibition at 10 µM of 9%.

As for `CC(C)=CCC1(C2=CCN(C)CC2)c2ccccc2CCc2ccccc21` [IQ], the inhibition in vivo at 25 mg/kg in the experiment with TNF was 28%. Besides, in experiment [1], the “# DEAD/TOTAL AT 25 MG/KG” value is recorded as 4/10. The compound also showed an inhibition at 10 µM with TNF-α of 62%.

For `C=CCC1(C2=CCNCC2)c2ccccc2CCc2ccccc21` [Compound IE, 4-[10,11-dihydro-5-(2-propenyl)-5H-dibenzo[a,d]cyclohepten-5-yl]-1,2,5,6-tetrahydro(1H)-pyridine], in experiment [1], the “# DEAD/TOTAL AT 25 MG/KG” value is recorded as 7/8. For the same compound, in the experiment with TNF-α, 10 µM produced 61% inhibition.

Regarding `C=CCC1(C2=CCN(C(C)C)CC2)c2ccccc2CCc2ccccc21` [Compound IP], at 25 mg/kg the inhibition in vivo in the experiment on TNF was 28%. In experiment [1], the “# DEAD/TOTAL AT 25 MG/KG” value is 6/10. This compound registered an inhibition at 10 µM with TNF-α of 62%.

The compound `C=CCC1(C2=CC[N+](C)(C)CC2)c2ccccc2CCc2ccccc21.[I-]` [Compound IM, 4-[10,11-dihydro-5-(2-propenyl)-5H-dibenzo[a,d]cyclohepten-5-yl]-1,1-dimethyl-1,2,5,6-tetrahydropyridinium iodide] displayed an inhibition in vivo at 25 mg/kg in the experiment with TNF of 27%. For the same compound, the “# DEAD/TOTAL AT 25 MG/KG” value in experiment [1] was 2/11. Besides, the inhibition at 10 µM with TNF-α was determined as 8%.

Compound `CN1CC=C(C2(C)c3ccccc3CCc3ccccc32)CC1` [IS] registered an inhibition in vivo at 25 mg/kg in the experiment on TNF of 26%. The compound also came in with an inhibition at 10 µM in the experiment on TNF-α of 61%.

As for `CCCC1(C2=CCN(C)CC2)c2ccccc2CCc2ccccc21` [Compound IF, 4-[10,11-dihydro-5-propyl-5H-dibenzo[a,d]cyclohepten-5-yl]-1-methyl-1,2,5,6-tetrahydropyridine], the inhibition in vivo at 25 mg/kg in the experiment on TNF amounted to 50%. Moreover, the “# DEAD/TOTAL AT 25 MG/KG” value in experiment [1] is 5/8. The inhibition at 10 µM with TNF-α amounted to 28%.
